From patent US11572399B2, “Long-acting GIP peptide analogues” (University of Copenhagen, priority 2017, dated 2023) come the findings set out here.

For test [1], the target named is T1, human GIP receptor (Homo sapiens, UniProt P48546).
T1 construct: host or cells: COS-7, transient transfection (calcium phosphate), cDNA in pCMV-Script
T1 sequence (P48546 22-466): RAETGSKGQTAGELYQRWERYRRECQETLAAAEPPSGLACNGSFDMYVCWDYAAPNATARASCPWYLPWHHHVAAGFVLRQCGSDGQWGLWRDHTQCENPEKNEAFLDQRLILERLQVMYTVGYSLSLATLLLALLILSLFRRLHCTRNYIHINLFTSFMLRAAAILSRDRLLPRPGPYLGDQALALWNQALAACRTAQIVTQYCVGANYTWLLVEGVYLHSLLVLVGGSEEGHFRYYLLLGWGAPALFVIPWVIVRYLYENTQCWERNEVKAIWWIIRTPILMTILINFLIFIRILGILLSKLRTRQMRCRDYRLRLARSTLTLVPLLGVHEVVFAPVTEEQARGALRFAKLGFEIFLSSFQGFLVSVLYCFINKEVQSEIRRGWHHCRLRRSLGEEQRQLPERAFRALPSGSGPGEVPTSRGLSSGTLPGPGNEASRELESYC
As to the kind of experiment: cAMP accumulation assay, agonism (ligand alone). Type of test: cell-based. The settings on record: COS-7 cells, Table 1; for EC50: read-out: cAMP agonism nM (EC50); for cAMP agonism Emax: intrinsic cAMP activity; for Emax: COS-7, intrinsic cAMP activity.

Test [2] deals with T1, human GIP receptor. As to the kind of experiment: 125I-human GIP competition binding assay, in the presence and absence of 2% HSA.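 For all read-outs here: nonspecific binding taken as radioligand bound to untransfected cells, IC50 obtained from nonlinear regression fits.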 The settings on record: for Binding fold (paired): fold decrease in affinity compared to GIP(3-30)NH2.
[3] abbreviates: Table 3b, initial data, read-out: Binding IC50.
Setting [4] is: heterologous competition binding, transiently transfected COS-7 cells expressing the human GIP receptor, read-out: Binding.

Like-named read-outs stand apart in the source and are kept apart here. Peptide text beside a SMILES is read from it. * marks the point of attachment. C16 diacid = O=C(O)CCCCCCCCCCCCCCC(=O)*

Usually EC50 stands for the midpoint of the concentration-response curve. In the case of `CCCCCCCCCCCC(=O)N[C@@H](CCC(=O)O)C(=O)NCC(=O)N[C@H](C(=O)N[C@@H](Cc1ccccc1)C(=O)N[C@H](C(=O)N[C@@H](CO)C(=O)N[C@@H](CC(=O)O)C(=O)N[C@@H](Cc1ccc(O)cc1)C(=O)N[C@@H](CO)C(=O)N[C@H](C(=O)N[C@@H](C)C(=O)N[C@@H](CCSC)C(=O)N[C@@H](CC(=O)O)C(=O)N[C@@H](CCCCN)C(=O)N[C@H](C(=O)N[C@@H](Cc1c[nH]cn1)C(=O)N[C@@H](CCC(N)=O)C(=O)N[C@@H](CCC(N)=O)C(=O)N[C@@H](CC(=O)O)C(=O)N[C@@H](Cc1ccccc1)C(=O)N[C@H](C(=O)N[C@@H](CC(N)=O)C(=O)N[C@@H](Cc1c[nH]c2ccccc12)C(=O)N[C@@H](CC(C)C)C(=O)N[C@@H](CC(C)C)C(=O)N[C@@H](C)C(=O)N[C@@H](CCC(N)=O)C(=O)N[C@@H](CCCCN)C(N)=O)C(C)C)[C@@H](C)CC)[C@@H](C)CC)[C@@H](C)CC)[C@@H](C)O` [AT101, [hGIP(3-30)NH2—C12/3]], on human GIP receptor [1], the EC50 is 0.7 nM and the “cAMP agonism Emax” value was 62%. Besides, the IC50 on human GIP receptor [2] (setting [3]) amounted to 9.9 nM. Also, the “Binding fold (paired)” value at human GIP receptor [2] (Table 3b) was determined as 0.7 fold. At human GIP receptor [2] (setting [4]), the IC50 came out at 9.9 nM.

As for `CCCCCCCCCCCC(=O)NCCCC[C@H](NC(=O)[C@H](CC(=O)O)NC(=O)[C@H](CCSC)NC(=O)[C@H](C)NC(=O)[C@@H](NC(=O)[C@H](CO)NC(=O)[C@H](Cc1ccc(O)cc1)NC(=O)[C@H](CC(=O)O)NC(=O)[C@H](CO)NC(=O)[C@@H](NC(=O)[C@H](Cc1ccccc1)NC(=O)[C@@H](NC(=O)CNC(=O)[C@@H](N)CCC(=O)O)[C@@H](C)O)[C@@H](C)CC)[C@@H](C)CC)C(=O)N[C@H](C(=O)N[C@@H](Cc1c[nH]cn1)C(=O)N[C@@H](CCC(N)=O)C(=O)N[C@@H](CCC(N)=O)C(=O)N[C@@H](CC(=O)O)C(=O)N[C@@H](Cc1ccccc1)C(=O)N[C@H](C(=O)N[C@@H](CC(N)=O)C(=O)N[C@@H](Cc1c[nH]c2ccccc12)C(=O)N[C@@H](CC(C)C)C(=O)N[C@@H](CC(C)C)C(=O)N[C@@H](C)C(=O)N[C@@H](CCC(N)=O)C(=O)N[C@@H](CCCCN)C(N)=O)C(C)C)[C@@H](C)CC` [AT102, [hGIP(3-30)NH2—C12/16]], at human GIP receptor [1], the EC50 worked out at 0.7 nM and the “cAMP agonism Emax” value is given as 66%. For the same compound, the IC50 at human GIP receptor [2] (setting [3]) was found to be 59.1 nM. Besides, the “Binding fold (paired)” value at human GIP receptor [2] (Table 3b) stood at 6.1 fold. The IC50 at human GIP receptor [2] (setting [4]) amounted to 59.1 nM.

For orientation: Emax means the maximal effect, on the per cent scale that the assay sets. In turn, `CCCCCCCCCCCCCCCC(=O)N[C@@H](CCC(=O)O)C(=O)NCC(=O)N[C@H](C(=O)N[C@@H](Cc1ccccc1)C(=O)N[C@H](C(=O)N[C@@H](CO)C(=O)N[C@@H](CC(=O)O)C(=O)N[C@@H](Cc1ccc(O)cc1)C(=O)N[C@@H](CO)C(=O)N[C@H](C(=O)N[C@@H](C)C(=O)N[C@@H](CCSC)C(=O)N[C@@H](CC(=O)O)C(=O)N[C@@H](CCCCN)C(=O)N[C@H](C(=O)N[C@@H](Cc1c[nH]cn1)C(=O)N[C@@H](CCC(N)=O)C(=O)N[C@@H](CCC(N)=O)C(=O)N[C@@H](CC(=O)O)C(=O)N[C@@H](Cc1ccccc1)C(=O)N[C@H](C(=O)N[C@@H](CC(N)=O)C(=O)N[C@@H](Cc1c[nH]c2ccccc12)C(=O)N[C@@H](CC(C)C)C(=O)N[C@@H](CC(C)C)C(=O)N[C@@H](C)C(=O)N[C@@H](CCC(N)=O)C(=O)N[C@@H](CCCCN)C(N)=O)C(C)C)[C@@H](C)CC)[C@@H](C)CC)[C@@H](C)CC)[C@@H](C)O` [AT104, [hGIP(3-30)NH2—C16/3]] yielded an Emax at human GIP receptor [1] of 81%. For the same compound, the IC50 at human GIP receptor [2] (setting [3]) and on human GIP receptor [2] (setting [4]) was 75 nM each time. The “Binding fold (paired)” value at human GIP receptor [2] (Table 3b) is reported as 4.9 fold.

In the case of `CCCCCCCCCCCCCCCC(=O)NCCCC[C@H](NC(=O)[C@H](CC(=O)O)NC(=O)[C@H](CCSC)NC(=O)[C@H](C)NC(=O)[C@@H](NC(=O)[C@H](CO)NC(=O)[C@H](Cc1ccc(O)cc1)NC(=O)[C@H](CC(=O)O)NC(=O)[C@H](CO)NC(=O)[C@@H](NC(=O)[C@H](Cc1ccccc1)NC(=O)[C@@H](NC(=O)CNC(=O)[C@@H](N)CCC(=O)O)[C@@H](C)O)[C@@H](C)CC)[C@@H](C)CC)C(=O)N[C@H](C(=O)N[C@@H](Cc1c[nH]cn1)C(=O)N[C@@H](CCC(N)=O)C(=O)N[C@@H](CCC(N)=O)C(=O)N[C@@H](CC(=O)O)C(=O)N[C@@H](Cc1ccccc1)C(=O)N[C@H](C(=O)N[C@@H](CC(N)=O)C(=O)N[C@@H](Cc1c[nH]c2ccccc12)C(=O)N[C@@H](CC(C)C)C(=O)N[C@@H](CC(C)C)C(=O)N[C@@H](C)C(=O)N[C@@H](CCC(N)=O)C(=O)N[C@@H](CCCCN)C(N)=O)C(C)C)[C@@H](C)CC` [AT105, [hGIP(3-30)NH2—C16/16]], at human GIP receptor [1], the Emax was 34%. Also, the IC50 at human GIP receptor [2] (setting [3]) and on human GIP receptor [2] (setting [4]) was 522 nM each time.

With `CC[C@H](C)[C@H](NC(=O)[C@H](CO)NC(=O)[C@H](Cc1ccc(O)cc1)NC(=O)[C@H](CC(=O)O)NC(=O)[C@H](CO)NC(=O)[C@@H](NC(=O)[C@H](Cc1ccccc1)NC(=O)[C@@H](NC(=O)CNC(=O)[C@@H](N)CCC(=O)O)[C@@H](C)O)[C@@H](C)CC)C(=O)N[C@@H](C)C(=O)N[C@@H](CCSC)C(=O)N[C@@H](CC(=O)O)C(=O)N[C@@H](CCCCN)C(=O)N[C@H](C(=O)N[C@@H](Cc1c[nH]cn1)C(=O)N[C@@H](CCC(N)=O)C(=O)N[C@@H](CCC(N)=O)C(=O)N[C@@H](CC(=O)O)C(=O)N[C@@H](Cc1ccccc1)C(=O)N[C@H](C(=O)N[C@@H](CC(N)=O)C(=O)N[C@@H](Cc1c[nH]c2ccccc12)C(=O)N[C@@H](CCCCNC(=O)CCCCCCCCCCCCCCC(=O)O)C(=O)N[C@@H](CC(C)C)C(=O)N[C@@H](C)C(=O)N[C@@H](CCC(N)=O)C(=O)N[C@@H](CCCCN)C(N)=O)C(C)C)[C@@H](C)CC` [AT315, [hGIP(3-30)NH2[L26K]-C16diacid/26]] (H-EGTFISDYSIAMDKIHQQDFVNWK(C16 diacid)LAQK-NH2; N-terminus assumed), at human GIP receptor [1], the Emax is 5.9% and the EC50 stood at 183 nM.

`CC[C@H](C)[C@H](NC(=O)[C@H](CO)NC(=O)[C@H](Cc1ccc(O)cc1)NC(=O)[C@H](CC(=O)O)NC(=O)[C@H](CO)NC(=O)[C@@H](NC(=O)[C@H](Cc1ccccc1)NC(=O)[C@@H](NC(=O)CNC(=O)[C@@H](N)CCC(=O)O)[C@@H](C)O)[C@@H](C)CC)C(=O)N[C@@H](C)C(=O)N[C@@H](CCSC)C(=O)N[C@@H](CC(=O)O)C(=O)N[C@@H](CCCCN)C(=O)N[C@H](C(=O)N[C@@H](Cc1c[nH]cn1)C(=O)N[C@@H](CCC(N)=O)C(=O)N[C@@H](CCC(N)=O)C(=O)N[C@@H](CC(=O)O)C(=O)N[C@@H](Cc1ccccc1)C(=O)N[C@H](C(=O)N[C@@H](CC(N)=O)C(=O)N[C@@H](Cc1c[nH]c2ccccc12)C(=O)N[C@@H](CC(C)C)C(=O)N[C@@H](CCCCNC(=O)CCCCCCCCCCCCCCC(=O)O)C(=O)N[C@@H](C)C(=O)N[C@@H](CCC(N)=O)C(=O)N[C@@H](CCCCN)C(N)=O)C(C)C)[C@@H](C)CC` [AT316, [hGIP(3-30)NH2[L27K]-C16diacid/27]] (H-EGTFISDYSIAMDKIHQQDFVNWLK(C16 diacid)AQK-NH2; N-terminus assumed) came in with an Emax on human GIP receptor [1] of 6.2%.

As for `CC[C@H](C)[C@H](NC(=O)[C@H](CO)NC(=O)[C@H](Cc1ccc(O)cc1)NC(=O)[C@H](CC(=O)O)NC(=O)[C@H](CO)NC(=O)[C@@H](NC(=O)[C@H](Cc1ccccc1)NC(=O)[C@@H](NC(=O)CNC(=O)[C@@H](N)CCC(=O)O)[C@@H](C)O)[C@@H](C)CC)C(=O)N[C@@H](C)C(=O)N[C@@H](CCSC)C(=O)N[C@@H](CC(=O)O)C(=O)N[C@@H](CCCCN)C(=O)N[C@H](C(=O)N[C@@H](Cc1c[nH]cn1)C(=O)N[C@@H](CCC(N)=O)C(=O)N[C@@H](CCC(N)=O)C(=O)N[C@@H](CC(=O)O)C(=O)N[C@@H](Cc1ccccc1)C(=O)N[C@H](C(=O)N[C@@H](CC(N)=O)C(=O)N[C@@H](Cc1c[nH]c2ccccc12)C(=O)N[C@@H](CC(C)C)C(=O)N[C@@H](CC(C)C)C(=O)N[C@@H](CCCCNC(=O)CCCCCCCCCCCCCCC(=O)O)C(=O)N[C@@H](CCC(N)=O)C(=O)N[C@@H](CCCCN)C(N)=O)C(C)C)[C@@H](C)CC` [AT317, [hGIP(3-30)NH2[A28K]-C16diacid/28]] (H-EGTFISDYSIAMDKIHQQDFVNWLLK(C16 diacid)QK-NH2; N-terminus assumed), at human GIP receptor [1], the maximum response (Emax) was 21.8% and the EC50 is 62 nM.

Compound `CC[C@H](C)[C@H](NC(=O)[C@H](CO)NC(=O)[C@H](Cc1ccc(O)cc1)NC(=O)[C@H](CC(=O)O)NC(=O)[C@H](CO)NC(=O)[C@@H](NC(=O)[C@H](Cc1ccccc1)NC(=O)[C@@H](N)[C@@H](C)O)[C@@H](C)CC)C(=O)N[C@@H](C)C(=O)N[C@@H](CCSC)C(=O)N[C@@H](CC(=O)O)C(=O)N[C@@H](CCCCN)C(=O)N[C@H](C(=O)N[C@@H](Cc1c[nH]cn1)C(=O)N[C@@H](CCC(N)=O)C(=O)N[C@@H](CCC(N)=O)C(=O)N[C@@H](CC(=O)O)C(=O)N[C@@H](Cc1ccccc1)C(=O)N[C@H](C(=O)N[C@@H](CC(N)=O)C(=O)N[C@@H](Cc1c[nH]c2ccccc12)C(=O)N[C@@H](CC(C)C)C(=O)N[C@@H](CC(C)C)C(=O)N[C@@H](C)C(=O)N[C@@H](CCC(N)=O)C(=O)N[C@@H](CCCCNC(=O)CCCCCCCCCCCCCCC(=O)O)C(N)=O)C(C)C)[C@@H](C)CC` [AT372, [hGIP(5-30)NH2[Q30K]-C16diacid/30]] showed an Emax at human GIP receptor [1] of 6%.
